Measurements published in ChEMBL document CHEMBL4507256 (2021).

Assays:
[1] = system: Tyrosine-protein kinase ABL1 (Homo sapiens), P00519 [H396P]; details: Compound concentration 1000.0 nM
[2] = biological target: Tyrosine-protein kinase ABL1 (Homo sapiens) (UniProt P00519); details: Compound concentration 1000.0 nM
[3] = biological target: Atypical kinase COQ8B, mitochondrial (Homo sapiens) (UniProt Q96D53); details: Compound concentration 1000.0 nM
[4] = biological target: Ankyrin repeat and protein kinase domain-containing protein 1 (Homo sapiens) (UniProt Q8NFD2); details: Compound concentration 1000.0 nM
[5] = biological target: Mitogen-activated protein kinase kinase kinase 5 (Homo sapiens) (UniProt Q99683); details: Compound concentration 1000.0 nM
[6] = biological target: Bone morphogenetic protein receptor type-1A (Homo sapiens) (UniProt P36894); details: Compound concentration 1000.0 nM
[7] = biological target: Cytoplasmic tyrosine-protein kinase BMX (Homo sapiens) (UniProt P51813); details: Compound concentration 1000.0 nM
[8] = biological target: Cyclin-dependent kinase 4 (Homo sapiens) (UniProt P11802); details: Compound concentration 1000.0 nM
[9] = biological target: Tyrosine-protein kinase CSK (Homo sapiens) (UniProt P41240); details: Compound concentration 1000.0 nM
[10] = biological target: Casein kinase I isoform delta (Homo sapiens) (UniProt P48730); details: Compound concentration 1000.0 nM
[11] = biological target: Serine/threonine-protein kinase 17B (Homo sapiens) (UniProt O94768); details: Compound concentration 1000.0 nM
[12] = system: Epidermal growth factor receptor (Homo sapiens), P00533 [G719S]; details: Compound concentration 1000.0 nM
[13] = system: Epidermal growth factor receptor (Homo sapiens), P00533 [UNDEFINED MUTATION]; details: Compound concentration 1000.0 nM
[14] = system: Epidermal growth factor receptor (Homo sapiens), P00533 [T790M]; details: Compound concentration 1000.0 nM
[15] = biological target: Ephrin type-B receptor 1 (Homo sapiens) (UniProt P54762); details: Compound concentration 1000.0 nM
[16] = biological target: Ephrin type-B receptor 3 (Homo sapiens) (UniProt P54753); details: Compound concentration 1000.0 nM
[17] = biological target: Ephrin type-B receptor 6 (Homo sapiens) (UniProt O15197); details: Compound concentration 1000.0 nM
[18] = biological target: Mitogen-activated protein kinase 15 (Homo sapiens) (UniProt Q8TD08); details: Compound concentration 1000.0 nM
[19] = system: Fibroblast growth factor receptor 3 (Homo sapiens), P22607 [G697C]; details: Compound concentration 1000.0 nM
[20] = biological target: Receptor-type tyrosine-protein kinase FLT3 (Homo sapiens) (UniProt P36888); details: Compound concentration 1000.0 nM
[21] = biological target: Insulin receptor (Homo sapiens) (UniProt P06213); details: Compound concentration 1000.0 nM
[22] = biological target: Tyrosine-protein kinase JAK1 (Homo sapiens) (UniProt P23458); details: Compound concentration 1000.0 nM
[23] = biological target: Mitogen-activated protein kinase 10 (Homo sapiens) (UniProt P53779); details: Compound concentration 1000.0 nM
[24] = biological target: Serine/threonine-protein kinase LATS1 (Homo sapiens) (UniProt O95835); details: Compound concentration 1000.0 nM
[25] = biological target: Leucine-rich repeat serine/threonine-protein kinase 2 (Homo sapiens) (UniProt Q5S007); details: Compound concentration 1000.0 nM
[26] = biological target: Myosin light chain kinase 2, skeletal/cardiac muscle (Homo sapiens) (UniProt Q9H1R3); details: Compound concentration 1000.0 nM
[27] = biological target: Myosin-IIIa (Homo sapiens) (UniProt Q8NEV4); details: Compound concentration 1000.0 nM
[28] = biological target: Mitogen-activated protein kinase 12 (Homo sapiens) (UniProt P53778); details: Compound concentration 1000.0 nM
[29] = biological target: 3-phosphoinositide-dependent protein kinase 1 (Homo sapiens) (UniProt O15530); details: Compound concentration 1000.0 nM
[30] = biological target: Calcium-dependent protein kinase 1 (Plasmodium falciparum) (UniProt P62344); details: Compound concentration 1000.0 nM
[31] = biological target: Cyclin-dependent kinase 2 homolog (Plasmodium falciparum (isolate 3D7)) (UniProt P61075); details: Compound concentration 1000.0 nM
[32] = biological target: Cyclin-dependent kinase 15 (Homo sapiens) (UniProt Q96Q40); details: Compound concentration 1000.0 nM
[33] = biological target: Phosphatidylinositol 4-phosphate 3-kinase C2 domain-containing subunit beta (Homo sapiens) (UniProt O00750); details: Compound concentration 1000.0 nM
[34] = biological target: Phosphatidylinositol 4-phosphate 5-kinase type-1 alpha (Homo sapiens) (UniProt Q99755); details: Compound concentration 1000.0 nM
[35] = biological target: Serine/threonine-protein kinase N2 (Homo sapiens) (UniProt Q16513); details: Compound concentration 1000.0 nM
[36] = biological target: cGMP-dependent protein kinase 1 (Homo sapiens) (UniProt Q13976); details: Compound concentration 1000.0 nM
[37] = biological target: Dual serine/threonine and tyrosine protein kinase (Homo sapiens) (UniProt Q6XUX3); details: Compound concentration 1000.0 nM
[38] = biological target: Ribosomal protein S6 kinase beta-1 (Homo sapiens) (UniProt P23443); details: Compound concentration 1000.0 nM
[39] = biological target: Serine/threonine-protein kinase Sgk1 (Homo sapiens) (UniProt O00141); details: Compound concentration 1000.0 nM
[40] = biological target: Serine/threonine-protein kinase Sgk3 (Homo sapiens) (UniProt Q96BR1); details: Compound concentration 1000.0 nM
[41] = biological target: STE20/SPS1-related proline-alanine-rich protein kinase (Homo sapiens) (UniProt Q9UEW8); details: Compound concentration 1000.0 nM
[42] = biological target: Tyrosine-protein kinase Tec (Homo sapiens) (UniProt P42680); details: Compound concentration 1000.0 nM
[43] = biological target: Dual specificity protein kinase TTK (Homo sapiens) (UniProt P33981); details: Compound concentration 1000.0 nM
[44] = biological target: Tyrosine-protein kinase receptor TYRO3 (Homo sapiens) (UniProt Q06418); details: Compound concentration 1000.0 nM
[45] = biological target: 5-hydroxytryptamine receptor 7 (Homo sapiens) (UniProt P34969); details: Compound concentration 10.0 uM

Cyclin-dependent kinase 2 homolog (Plasmodium falciparum (isolate 3D7)), sequence (P61075 whole entry): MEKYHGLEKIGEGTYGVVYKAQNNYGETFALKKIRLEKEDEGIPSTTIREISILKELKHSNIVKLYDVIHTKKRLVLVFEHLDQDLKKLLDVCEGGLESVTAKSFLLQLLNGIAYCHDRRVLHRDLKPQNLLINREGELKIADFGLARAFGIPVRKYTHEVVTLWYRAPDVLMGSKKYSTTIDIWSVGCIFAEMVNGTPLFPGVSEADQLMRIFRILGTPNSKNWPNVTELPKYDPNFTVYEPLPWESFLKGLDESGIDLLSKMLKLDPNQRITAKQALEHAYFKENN
Dual specificity protein kinase TTK (Homo sapiens), sequence (P33981 whole entry): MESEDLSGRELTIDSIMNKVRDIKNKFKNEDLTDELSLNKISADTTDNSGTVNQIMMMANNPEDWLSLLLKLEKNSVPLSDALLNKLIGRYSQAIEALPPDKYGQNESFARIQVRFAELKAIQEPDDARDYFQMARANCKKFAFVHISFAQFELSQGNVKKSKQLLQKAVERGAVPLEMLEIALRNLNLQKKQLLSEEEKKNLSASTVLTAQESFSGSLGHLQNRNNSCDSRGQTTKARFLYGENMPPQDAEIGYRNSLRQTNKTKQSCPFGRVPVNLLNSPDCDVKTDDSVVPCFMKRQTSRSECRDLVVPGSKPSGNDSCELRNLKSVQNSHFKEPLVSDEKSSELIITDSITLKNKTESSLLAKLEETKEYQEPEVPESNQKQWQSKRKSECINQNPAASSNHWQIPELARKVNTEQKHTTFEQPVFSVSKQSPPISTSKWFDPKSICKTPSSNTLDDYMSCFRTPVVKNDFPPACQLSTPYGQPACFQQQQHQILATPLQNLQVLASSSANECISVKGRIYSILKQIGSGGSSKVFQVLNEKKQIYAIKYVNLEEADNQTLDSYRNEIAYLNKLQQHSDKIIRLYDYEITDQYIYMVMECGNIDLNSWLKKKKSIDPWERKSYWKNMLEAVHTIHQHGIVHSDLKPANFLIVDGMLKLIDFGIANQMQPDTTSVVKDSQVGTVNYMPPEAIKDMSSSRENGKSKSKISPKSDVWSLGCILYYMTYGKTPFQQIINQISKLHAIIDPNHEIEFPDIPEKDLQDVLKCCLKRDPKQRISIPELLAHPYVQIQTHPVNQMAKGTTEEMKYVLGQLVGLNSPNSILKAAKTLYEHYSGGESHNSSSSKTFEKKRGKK
Myosin-IIIa (Homo sapiens), sequence (Q8NEV4 whole entry): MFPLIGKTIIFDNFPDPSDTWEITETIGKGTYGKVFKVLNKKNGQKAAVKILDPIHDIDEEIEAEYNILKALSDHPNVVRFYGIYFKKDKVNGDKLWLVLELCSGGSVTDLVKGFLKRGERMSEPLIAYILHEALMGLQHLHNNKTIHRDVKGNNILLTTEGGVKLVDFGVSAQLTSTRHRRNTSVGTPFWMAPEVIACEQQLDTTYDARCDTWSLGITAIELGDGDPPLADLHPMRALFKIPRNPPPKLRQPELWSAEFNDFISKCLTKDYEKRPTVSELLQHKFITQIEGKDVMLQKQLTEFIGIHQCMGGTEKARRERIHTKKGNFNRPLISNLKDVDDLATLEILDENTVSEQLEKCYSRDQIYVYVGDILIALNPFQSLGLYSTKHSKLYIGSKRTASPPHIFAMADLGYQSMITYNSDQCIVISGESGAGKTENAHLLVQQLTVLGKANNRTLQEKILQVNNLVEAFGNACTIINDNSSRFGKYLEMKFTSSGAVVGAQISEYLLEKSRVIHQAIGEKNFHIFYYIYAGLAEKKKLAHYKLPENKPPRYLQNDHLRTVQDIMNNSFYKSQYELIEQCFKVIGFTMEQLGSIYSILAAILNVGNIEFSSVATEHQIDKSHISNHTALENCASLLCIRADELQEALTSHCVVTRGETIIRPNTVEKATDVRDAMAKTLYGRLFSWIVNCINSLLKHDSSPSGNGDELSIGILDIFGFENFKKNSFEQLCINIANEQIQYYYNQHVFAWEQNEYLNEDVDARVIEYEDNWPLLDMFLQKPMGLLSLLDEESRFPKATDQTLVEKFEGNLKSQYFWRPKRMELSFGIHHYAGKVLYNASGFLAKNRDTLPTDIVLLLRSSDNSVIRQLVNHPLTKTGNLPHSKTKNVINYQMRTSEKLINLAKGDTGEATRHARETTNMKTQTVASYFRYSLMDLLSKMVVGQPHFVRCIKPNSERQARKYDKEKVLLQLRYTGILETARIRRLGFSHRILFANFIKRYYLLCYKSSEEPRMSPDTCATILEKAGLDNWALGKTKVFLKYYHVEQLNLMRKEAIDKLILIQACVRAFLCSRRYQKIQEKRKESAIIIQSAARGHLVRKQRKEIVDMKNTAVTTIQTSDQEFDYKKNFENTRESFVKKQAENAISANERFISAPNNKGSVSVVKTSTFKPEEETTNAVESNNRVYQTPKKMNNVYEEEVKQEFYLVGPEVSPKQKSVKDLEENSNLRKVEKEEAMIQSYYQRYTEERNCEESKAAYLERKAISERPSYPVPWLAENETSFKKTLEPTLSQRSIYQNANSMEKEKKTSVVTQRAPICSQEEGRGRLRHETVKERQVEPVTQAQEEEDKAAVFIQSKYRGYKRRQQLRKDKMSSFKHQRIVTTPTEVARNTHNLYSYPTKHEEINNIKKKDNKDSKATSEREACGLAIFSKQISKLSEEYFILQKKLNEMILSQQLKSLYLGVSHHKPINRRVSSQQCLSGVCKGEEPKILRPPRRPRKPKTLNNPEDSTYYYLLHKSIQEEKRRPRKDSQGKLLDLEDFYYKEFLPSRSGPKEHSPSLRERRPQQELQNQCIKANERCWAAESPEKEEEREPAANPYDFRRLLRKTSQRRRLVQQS
Ephrin type-B receptor 3 (Homo sapiens), sequence (P54753 whole entry): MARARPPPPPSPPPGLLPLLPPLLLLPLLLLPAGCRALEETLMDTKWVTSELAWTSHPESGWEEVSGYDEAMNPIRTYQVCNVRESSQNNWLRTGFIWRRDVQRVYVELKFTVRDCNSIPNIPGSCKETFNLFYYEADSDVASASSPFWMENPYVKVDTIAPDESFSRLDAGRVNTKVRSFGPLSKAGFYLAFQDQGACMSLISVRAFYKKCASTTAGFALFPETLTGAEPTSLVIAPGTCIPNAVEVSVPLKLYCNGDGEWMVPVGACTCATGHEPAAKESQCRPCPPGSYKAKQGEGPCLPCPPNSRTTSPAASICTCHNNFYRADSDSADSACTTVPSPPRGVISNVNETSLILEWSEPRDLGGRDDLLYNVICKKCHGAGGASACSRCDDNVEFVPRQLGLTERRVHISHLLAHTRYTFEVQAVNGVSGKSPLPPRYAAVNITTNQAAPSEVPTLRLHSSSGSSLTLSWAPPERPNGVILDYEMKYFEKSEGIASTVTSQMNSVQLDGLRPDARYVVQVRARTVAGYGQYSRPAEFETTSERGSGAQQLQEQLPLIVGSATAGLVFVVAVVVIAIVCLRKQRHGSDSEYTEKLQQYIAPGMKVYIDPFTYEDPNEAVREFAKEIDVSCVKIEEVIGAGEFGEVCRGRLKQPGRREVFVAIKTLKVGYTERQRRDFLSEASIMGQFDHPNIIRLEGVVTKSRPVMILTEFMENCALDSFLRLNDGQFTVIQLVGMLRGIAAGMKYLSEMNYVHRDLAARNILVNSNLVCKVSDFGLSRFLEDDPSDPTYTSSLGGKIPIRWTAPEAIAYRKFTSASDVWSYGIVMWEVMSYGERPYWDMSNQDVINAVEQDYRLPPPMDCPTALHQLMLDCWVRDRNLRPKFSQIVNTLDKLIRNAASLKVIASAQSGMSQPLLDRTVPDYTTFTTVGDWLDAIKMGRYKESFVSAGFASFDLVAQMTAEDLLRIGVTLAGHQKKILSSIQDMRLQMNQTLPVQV
Tyrosine-protein kinase CSK (Homo sapiens), sequence (P41240 2-450 limits assumed): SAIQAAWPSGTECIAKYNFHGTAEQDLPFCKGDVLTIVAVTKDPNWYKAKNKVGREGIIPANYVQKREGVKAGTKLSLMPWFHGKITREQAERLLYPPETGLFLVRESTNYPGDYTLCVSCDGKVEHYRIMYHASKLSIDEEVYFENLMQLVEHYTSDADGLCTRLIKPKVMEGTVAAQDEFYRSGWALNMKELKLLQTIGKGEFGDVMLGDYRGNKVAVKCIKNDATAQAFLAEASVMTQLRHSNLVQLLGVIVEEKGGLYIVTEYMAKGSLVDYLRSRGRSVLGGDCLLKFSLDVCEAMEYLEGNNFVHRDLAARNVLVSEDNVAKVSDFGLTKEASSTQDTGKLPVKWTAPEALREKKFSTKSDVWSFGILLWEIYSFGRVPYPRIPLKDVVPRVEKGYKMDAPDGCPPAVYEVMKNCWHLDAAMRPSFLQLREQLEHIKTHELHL
Serine/threonine-protein kinase Sgk1 (Homo sapiens), sequence (O00141 whole entry): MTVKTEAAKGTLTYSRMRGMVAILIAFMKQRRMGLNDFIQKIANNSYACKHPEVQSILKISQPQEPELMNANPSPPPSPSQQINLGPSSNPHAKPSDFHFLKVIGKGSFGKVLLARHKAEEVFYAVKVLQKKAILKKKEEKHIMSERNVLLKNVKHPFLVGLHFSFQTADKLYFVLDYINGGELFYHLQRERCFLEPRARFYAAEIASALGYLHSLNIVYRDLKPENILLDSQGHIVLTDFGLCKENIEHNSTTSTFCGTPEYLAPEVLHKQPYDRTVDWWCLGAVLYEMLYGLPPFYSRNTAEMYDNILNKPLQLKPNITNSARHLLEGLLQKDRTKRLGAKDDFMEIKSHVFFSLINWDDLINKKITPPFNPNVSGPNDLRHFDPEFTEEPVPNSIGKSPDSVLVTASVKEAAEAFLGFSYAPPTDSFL
Serine/threonine-protein kinase 17B (Homo sapiens), sequence (O94768 whole entry): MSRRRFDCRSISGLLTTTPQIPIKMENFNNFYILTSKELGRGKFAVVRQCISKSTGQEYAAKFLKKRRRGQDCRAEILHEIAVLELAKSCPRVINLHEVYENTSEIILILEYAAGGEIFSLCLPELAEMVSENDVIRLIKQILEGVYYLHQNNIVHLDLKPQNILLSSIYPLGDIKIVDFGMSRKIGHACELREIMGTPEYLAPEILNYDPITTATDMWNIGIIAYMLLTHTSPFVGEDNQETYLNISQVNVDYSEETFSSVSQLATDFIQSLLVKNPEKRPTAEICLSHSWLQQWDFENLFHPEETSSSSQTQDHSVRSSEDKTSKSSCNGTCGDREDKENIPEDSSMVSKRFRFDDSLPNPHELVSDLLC

CCC(=N\O)/C(C)=C/c1ccc(F)c(C)c1 [A-226]
inactive: residual activity [1] 100% | residual activity [2] 100% | residual activity [3] 83% | residual activity [4] 100% | residual activity [5] 100% | residual activity [6] 100% | residual activity [7] 99% | residual activity [8] 100% | residual activity [9] 96% | residual activity [10] 92% | residual activity [11] 100% | residual activity [12] 79% | residual activity [13] 65% | residual activity [14] 100% | residual activity [15] 90% | residual activity [16] 96% | residual activity [17] 100% | residual activity [18] 100% | residual activity [19] 87% | residual activity [20] 100% | residual activity [21] 100% | residual activity [22] 100% | residual activity [23] 100% | residual activity [24] 89% | residual activity [25] 100% | residual activity [26] 78% | residual activity [27] 94% | residual activity [28] 88% | residual activity [29] 100% | residual activity [30] 85% | residual activity [31] 100% | residual activity [32] 100% | residual activity [33] 55% | residual activity [34] 100% | residual activity [35] 100% | residual activity [36] 100% | residual activity [37] 95% | residual activity [38] 100% | residual activity [39] 100% | residual activity [40] 100% | residual activity [41] 100% | residual activity [42] 100% | residual activity [43] 93% | residual activity [44] 100% | inhibition [45] -0.42%

CCC(=N\O)/C(C)=C/c1ccc(F)cc1 [A-079]
inactive: residual activity [1] 72% | residual activity [2] 66% | residual activity [3] 84% | residual activity [4] 79% | residual activity [5] 93% | residual activity [6] 86% | residual activity [7] 83% | residual activity [8] 78% | residual activity [9] 100% | residual activity [10] 81% | residual activity [11] 74% | residual activity [12] 67% | residual activity [13] 67% | residual activity [14] 100% | residual activity [15] 100% | residual activity [16] 75% | residual activity [17] 95% | residual activity [18] 95% | residual activity [19] 84% | residual activity [20] 86% | residual activity [21] 100% | residual activity [22] 96% | residual activity [23] 100% | residual activity [24] 100% | residual activity [25] 90% | residual activity [26] 81% | residual activity [27] 100% | residual activity [28] 100% | residual activity [29] 87% | residual activity [30] 87% | residual activity [31] 84% | residual activity [32] 80% | residual activity [33] 92% | residual activity [34] 97% | residual activity [35] 80% | residual activity [36] 100% | residual activity [37] 66% | residual activity [38] 66% | residual activity [39] 89% | residual activity [40] 81% | residual activity [41] 94% | residual activity [42] 89% | residual activity [43] 96% | residual activity [44] 100% | inhibition [45] 8.18%
